Data set [1] relates to human dermal fibroblasts (HDFs). Put plainly: 24-hour cytocompatibility (MTS and Picogreen dsDNA). The format is cell-based. The note with it: 10 μM. The protocol: (§1) Human dermal fibroblasts (HDFs) and AT1 cells were seeded at a density of 5000 cells/well in a 96 well plate and allowed to attach at 37° C. and 5% CO2 for 24 hours. […] Following incubation, the cells were washed with 1× sterile PBS and cell viability was assessed using MTS and Picogreen dsDNA assays (e.g., available from Life Technologies, located in Grand Island, N.Y.) according to manufacturer's instructions. MTS assay measures the percentage of cells alive in each well compared to the controls. These findings were validated using Picogreen dsDNA assay which calculates the amount of total cell DNA present in each well compared to the control.

The subject of data set [2] is folate receptors on H460 lung cancer cells. Put plainly: Folic acid binding, Resonant Sensors Bioassay (peak shift). The note with it: 0-15 μM, 3 hours. The protocol: (§2) The binding of folic acid to folate receptors was studied using Resonant Sensors Bioassay system (e.g., available from Resonant Sensors Inc. (RSI), located in Arlington, Tex.). A549 and H460 lung cancer cells as well as AT1 cells were seeded at a density of 10,000 cells/well in RSI sensor 96-well plates, which were incubated at […] for 24 hours to allow cell attachment. For folic acid binding efficiency studies, the cells were incubated with folic acid at varying concentrations (i.e., 0, 0.1, 1, 5, 10, 15 μM) for 3 hours in the RSI system and peak shift with cell binding over time was studied.

Data set [3] has as its system folate receptors on A549 lung cancer cells. The description is as above. The note with it: 0-15 μM, 3 hours. How it is done:
as §2

Data set [4] deals with folate receptors on AT1 cells. Described as above. The note with it: 0-15 μM, 3 hours. The arrangement: species or system human. The protocol: as §2
Data set [5] concerns AT1 cells. The data set can be described thus: 24-hour cytocompatibility (MTS and Picogreen dsDNA). The format is cell-based, human. The note with it: 10 μM. How it is done:
as §1

The test system of data set [6] is human AT1 cells. The data set can be described thus: Cell activation study: intracellular ROS production (H2DCFDA). The format is cell-based. The note with it: positive control, 10 μg/ml. The protocol: A cell activation study was conducted to determine whether NP uptake causes oxidative stress in the cells in vitro. For example, human AT1 cells were seeded in tissue culture plates and incubated overnight as described earlier. The next day, cells were exposed to two different concentrations of each NP (250 μg/ml and 1000 μg/ml) and incubated for another 24 hours. Cells exposed to 10 μg/ml lipopolysaccharide (LPS) were considered as a positive control while cells exposed to media only served as the negative control. To detect the Intracellular Reactive Oxygen Species (ROS) production on NP exposure, cells were then washed thrice with PBS and incubated with 5 μM of 2′,7′-dichlorodihydrofluorescein diacetate (H2DCFDA) solution in PBS for 30 minutes. The cells were then washed again with PBS and fluorescence was measured at λex of 485 nm and […] using a spectrophotometer.
(§3) To study cytokine production, the concentration of interleukin-1 alpha (IL-1∞), interleukin-1 beta (IL-1β), interleukins 2, 4, 6, 8, 10, 12, 10A, and tumor necrosis factor-alpha (TNF-α) in the medium was measured using Multi-Analyte ELISAArray Kit (SA Biosciences, Frederick, Md.) according to the manufacturer's directions.

For data set [7], the system named is AT1 cells. Put plainly: Cell activation study: cytokine ELISA. The format is cell-based, human. The note with it: 24 hours; MDNPs at 1 mg/mL; LPS positive control. The protocol: as §3
The cells stimulated using LPS (positive control) produced 0.25 ng/ml IL-6, 1.27 ng/ml IL-8, 0.24 ng/ml IL-10 and 0.11 ng/ml TNF-α inflammatory cytokines.

Two compounds from patent US10765745B2, “Multifunctional nanoparticle systems and methods for cancer diagnosis and combination therapy” (BOARD OF REGENTS, THE UNIVERSITY OF TEXAS SYSTEM, priority 2015, dated 2020) can be followed below.

For the compound `Nc1nc2ncc(CNc3ccc(C(=O)N[C@@H](CCC(=O)O)C(=O)O)cc3)nc2c(=O)[nH]1` [folic acid], the “cytocompatibility (MTS)” value in data set [1] and in data set [5] was “non-toxic” in each case. For the same compound, the peak shift result in data set [2] is “comparatively larger peak shift”; in data set [3] it was “increase in peak shift”; in data set [4], “no dose-dependent increase in peak shift”.
For lipopolysaccharide [LPS], the “ROS production, % of the control” value in data set [6] amounted to 425%. Moreover, in data set [7], the IL-6 produced was found to be 0.25 ng/mL, the IL-8 produced was 1.27 ng/mL, the IL-10 produced came to 0.24 ng/mL and the TNF-α produced amounted to 0.11 ng/mL.
